# Data as given in ChEMBL document CHEMBL1157539, “Thousands of chemical starting points for antimalarial lead identification” (Nature, 2010).
# Test system: Plasmodium falciparum
# Experiment: GSK_TCMDC: Inhibition of Plasmodium falciparum 3D7 in whole erythrocytes, using parasite LDH activity as an index of growth.
# Assay type: functional, organism-based
# Settings: Plasmodium falciparum, 3D7
row,SMILES,XC50 [µM]
1,COc1nc2c(CCN3CC[C@H](NCc4cc(C#N)c5c(c4)OCCO5)[C@H](O)C3)ccnc2cc1F,0.783
2,COc1ccc(C(=O)CCC(=O)N(Cc2ccc(-c3ccc(CNCCc4ccc(S(C)(=O)=O)cc4)cn3)cc2)C(C)CN(C)C)cc1F (stereo not drawn),0.65
3,Cn1cc(C2CCN(CCCCNC(=O)c3sc(-c4ccc(C(F)(F)F)cc4)nc3CO)CC2)c2ccccc21,1.06
4,COc1ccc2nccc([C@@H](O)CN3CCC(NCc4ccc5c(c4)NC(=O)CO5)CC3)c2c1,1.66
5,Cc1ccc(C(=O)Nc2cccc(CN3CCCN(Cc4ccc(O)cc4)CC3)c2)s1,1
6,O=C(NC1CCN(CC2(c3ccccc3)CCCC2)CC1)c1n[nH]cc1Cl,1.04
7,O=C(Nc1cccc(-c2ccc(-c3nc4cc(F)ccc4[nH]3)cc2)c1)Nc1ccc(Cl)c(Cl)c1,0.139
8,COc1cc(Cc2cnc(N)nc2N)cc(OC)c1OCCCCC(=O)O,1.14
9,Nc1c(C(=O)NCCCCN2CCN(c3nsc4ccccc34)CC2)sc2ccccc12,1.32
10,Cc1[nH]c(C)c(-c2ccc(-c3ccc(OC(F)(F)F)cc3)nc2)c(=O)c1Cl,0.201
11,CN1CCC(Oc2ccc(Nc3nccc(NCC(O)c4ccccc4)n3)cc2Cl)CC1 (stereo not drawn),0.785
12,O=C(Nc1ccc2c(c1)CCC2)c1nc(N2CCN(c3ccncc3)CC2)ccc1Cl,1.38
13,NCc1cccc(-c2cccc(CNC3CCN(Cc4ccccc4)CC3)c2)c1,0.719
14,CCCCCCCCCN1CC[C@@H](CCCc2ccnc3ccc(O)cc23)[C@@H](CC)C1,0.29
15,COc1ccc2nccc([C@@H](O)CN3CCC(NCc4cc5ccc(C#N)cc5[nH]4)CC3)c2c1,0.095
16,COc1ccc(C(=O)N[C@@H](CC(C)C)C(=O)NC2CC[C@@H](C)N(C(=O)Nc3ccc(Cl)cc3)CC2=O)cc1OCCN1CCOCC1 (stereo partly drawn),0.152
17,Cn1cncc1C(=O)Nc1cccc(-c2csc(-c3nc4ccccc4[nH]3)c2)c1,0.447
18,c1cc(CN2CCc3ccccc3CC2)cc(-c2c[nH]c3nc(NC4CCCC4)ncc23)c1,0.8
19,O=C(NCCCCN1CCC(c2ccc3c(c2OCC2COCO2)CCCC3)CC1)c1ccc(-c2ccc(C(F)(F)F)cc2)cc1 (stereo not drawn),0.868
20,CCOc1cc(C(=O)NCCCN2CCN(c3cccc(Cl)c3)CC2)ccc1-c1nc2cc(Cl)c(F)cc2[nH]1,0.866
21,FC(F)(F)c1ccc2[nH]c(-c3cccc(-c4cccc(CNCCN5CCNCC5)c4)c3)nc2c1,0.937
22,CN(CCN1CCC(c2c[nH]c3ccccc23)CC1)c1ccc(-c2nc3cc(Cl)c(Cl)cc3[nH]2)cc1,0.119
23,COc1ccc2ccccc2c1CNCCCCCCNCc1c(OC)ccc2ccccc12,0.712
24,O=C(/C=C/c1ccc(Cl)c(Cl)c1)NCCCCN1CCCN(C(=O)Nc2ccc(C(F)(F)F)cc2)CC1,0.847
25,COc1ccc(O)cc1/C=N/Nc1ccnc2cc(Cl)ccc12,0.544

row,SMILES,XC50 [µM]
1,O=S(=O)(c1cccc(Cl)c1F)N(CCC(O)(C(F)(F)F)C(F)(F)F)Cc1cccc(O)c1,0.918
2,Cc1ccc(O)cc1C[C@@H]1C(=O)CC[C@@]2(C)[C@H]1CC[C@]2(C)O,0.957
3,CN(C)CCCOc1ccc(CNCc2cccc(Oc3ccc(Cl)cc3)c2)cc1,0.824
4,CCOc1cc(C(=O)Nc2cccnc2)ccc1-c1nc2cc(Cl)c(Cl)cc2[nH]1,1.01
5,Cc1cccc(C(O)CNc2ccnc(Nc3cccc(-c4csc(C)n4)c3)n2)c1 (stereo not drawn),0.675
6,CC(=NNC(=N)N)c1ccc2c(c1)Cc1ccccc1-2,1.41
7,CCCCN(CCCC)/C(=N/C(=N)Nc1ccc(Cl)cc1)NCCCCCCN/C(=N\C(=N)Nc1ccc(Cl)cc1)N(CCCC)CCCC,0.791
8,O=C(Nc1ccc(Cl)cc1)Nc1cccc(-c2ccc(-c3nc4ccccc4[nH]3)cc2)c1,0.928
9,CCN(CC)CCN(Cc1ccc(-c2ccc(C(F)(F)F)cc2)cc1)C(=O)c1ccc(-c2ccc(C#N)cc2)cc1,1.11
10,Cc1cc(N[C@@H](Cc2ccccc2)C(=O)Nc2ccccc2)nc(NCC2CCCCC2)n1,0.761
11,Clc1ccc(Nc2nc3ccc(Cl)cc3nc2Nc2ccc(Cl)cc2)cc1,0.133
12,C=CCc1ccc(C2CCN(CCCCNC(=O)c3ccc(NC(=O)c4ccc(Cl)cc4)cc3)CC2)cc1,1.12
13,O=C(NCCCN1CCOCC1)c1cccc(Nc2nccc(Nc3ccc(Oc4ccccc4)cc3)n2)c1,0.766
14,c1cc(-c2ccc(CNCc3ccc(-c4csnn4)cc3)cc2)cc(-c2nc3ccccc3[nH]2)c1,0.158
15,CC(O)C1CCCCN1C(=O)c1cccc(-c2ccc(-c3nc4cc(C(F)(F)F)ccc4[nH]3)cc2)c1 (stereo not drawn),0.69
16,COc1cc(CCNc2nc(NCc3ccccc3-c3ccccc3)nc(N3CCC(N)CC3)n2)ccc1O,0.817
17,COc1cc(C(=O)N2CCN(C(C)C)CC2)ccc1CN(C)CCCN1CCN(c2cccc(Cl)c2Cl)CC1,0.776
18,N=C(N)NN=Cc1ccccc1OCc1ccccc1Cl,0.718
19,Cc1cccc2nc(-c3ccc(-c4cccc(CNCCN5CCNCC5)c4)cc3)[nH]c12,1.23
20,COc1ccc(CNC2CCN(C)CC2)cc1-c1ccc(S(=O)(=O)NC2CCC2)c(C)c1,0.993
21,CCOc1ccc(C(Cc2ccccc2)NC(=O)c2cccnc2)cc1OCC (stereo not drawn),0.769
22,CN1CCN(CCCN(Cc2ccc(-c3ccc(CNCCc4ccccc4)cc3)cc2)C(=O)c2cccs2)CC1,1.43
23,CCOc1cc(Cl)c(C(C)NC(=O)c2cccc(OC)c2)cc1OCC (stereo not drawn),0.956
24,CN(CCCCCN1CCC(NC(=O)Nc2ccc(Oc3ccccc3)cc2)C1)C(=O)/C=C/c1ccc(Cl)c(Cl)c1 (stereo not drawn),0.421
25,N=C(N)NN=CC(=O)Nc1cccc(C(F)(F)F)c1,1

row,SMILES,XC50 [µM]
1,CN(C)CCNCc1ccc(-c2ccc3c(Nc4ccc(F)cc4Cl)ccnc3c2)o1,0.145
2,Oc1ccccc1-c1nc2cccnc2n1CCc1cccc(C(F)(F)F)c1,1.27
3,CN1CCC(C(=O)Nc2cccc(-c3ccc(-c4nc5ccccc5[nH]4)cc3)c2)CC1,1.09
4,Fc1cc(Cl)ccc1Nc1ccnc2cc(-c3ccc(CN4CCNCC4)o3)ccc12,0.277
5,COc1ccc(C=Cc2cc(=N)c3ccccc3[nH]2)cc1Br,0.713
6,COCCn1c(SC(C)C(=O)Nc2cc(C(F)(F)F)ccc2Cl)nc2ccccc2c1=O (stereo not drawn),0.629
7,Cc1cc(N)ncc1-c1ccc(NC(=O)Nc2cc(C(F)(F)F)ccc2F)cc1,0.698
8,CCCCCC(C)NC[C@@H](O)[C@H](Cc1ccccc1)NC(=O)c1cc(NCC)cc(N2CCCCS2(=O)=O)c1 (stereo partly drawn),0.398
9,COc1ccc(CN2CCCN(Cc3cccc(C(=O)Nc4ccc(C(C)(C)C)cc4)c3)CC2)cc1,0.891
10,Cc1onc(-c2ccc(Cl)cc2)c1-c1ccnn1S(=O)(=O)c1ccc(Cl)cc1,0.711
11,COc1ccc(-c2ccc(CNC(=O)c3cccc(C#N)c3)c(F)c2)cc1CN1CCCN(C)CC1,0.804
12,O=C(/C=C/c1ccc(Cl)c(Cl)c1)NCCCCCN1CCCC(CNC(=O)Nc2ccc(Oc3ccccc3)cc2)C1 (stereo not drawn),0.783
13,CN1CCC(Oc2ccc(CN3CC[C@H](NC(=O)c4ccc(F)c(F)c4)C3)c3ccccc23)C1 (stereo partly drawn),1.08
14,CN1CCN(CCCN(Cc2ccc(-c3cccc(CNC4CCCC4)c3)cc2)C(=O)Nc2ccccc2)CC1,1.12
15,COc1cc2nc(N3CCC(CNC(=O)c4ccc(-c5ccccc5)cc4)CC3)nc(N)c2cc1OC,0.574
16,Cc1c(S(=O)(=O)Nc2ccc3nccc(N4CCN[C@H](C)C4)c3c2)sc2ccc(Cl)cc12,0.842
17,Cc1ccc(NC(=O)NC2CCN(c3ccnc4ccccc34)C2)cc1 (stereo not drawn),0.709
18,CCC(C)NCCC(c1ccccc1)c1ccccc1O (stereo not drawn),0.788
19,OCCCCCCNc1ccnc2[nH]c3ccc(I)cc3c12,1.07
20,CC(C)c1sc(N2CCN(C)CC2)nc1C(=O)Nc1cccc2c1CCCC2,1.28
21,O=C(NCC1CCN(CC2CCCCC2)C1)c1cc(-c2cccc(Cl)c2)cs1 (stereo not drawn),1.09
22,CCN(CC)CC(O)c1cc(-c2ccc(OC)cc2)nc2cc(Cl)ccc12 (stereo not drawn),0.0671
23,CCN(CC)CCN(Cc1ccc(-c2ccc(C(F)(F)F)cc2)cc1)C(=O)Cn1c(CCc2ccc(F)c(F)c2F)nc(=O)c2ccccc21,0.795
24,Cc1cccc(CC(=N)NCCCCCCNC(=N)Cc2cccc(C)c2)c1,0.167
25,O=C(/C=C/c1ccc(Cl)c(Cl)c1)N1CCC(CN2CCC(c3c[nH]c4cnccc34)CC2)CC1,0.219

row,SMILES,XC50 [µM]
1,CC(=NNC(S)=NCCc1ccccc1)c1ccccn1,0.218
2,C[C@@H](C(N)=O)N1CCCCC1c1ccc(OCc2cccc(F)c2)cc1 (stereo partly drawn),0.989
3,COc1ccc(OCCCON2C(=N)N=C(N)NC2(C)C)cc1,0.0032
4,CC1(C)N=C(N)N=C(N)N1c1ccc2ccccc2c1,0.0538
5,c1cc(Nc2nccc(-c3cnn4ncccc34)n2)cc(-c2cnco2)c1,0.692
6,NCC(=O)NC12CC3CC(CC(C3)C1)C2,1.2
7,CC(=O)Nc1cccc(CNc2cc(C)nc(Nc3ccc(C)cc3)n2)c1,1.14
8,CCOC(=O)c1ccc(CC(C)NCC(O)c2cccc(C(F)(F)F)c2)cc1 (stereo not drawn),0.216
9,Cc1cccc2nc(-c3ccc(-c4ccc(NC(=O)Nc5ccc(F)c(F)c5F)cc4)cc3)[nH]c12,0.273
10,CN1CCC(Oc2ccc(CN3CC[C@H](NC(=O)c4ccc(Cl)c(Cl)c4)C3)cc2Cl)C1 (stereo partly drawn),0.882
11,Cc1cc(NCCc2ccccc2)nc(N/C(=N/CC(=O)OC(C)(C)C)Nc2ccc(C(F)(F)F)cc2)n1,0.335
12,CCn1c(-c2ccccc2)cc2nnc3ccccc3c21,0.769
13,CCNc1cc(C(=O)N[C@@H](Cc2ccccc2)[C@H](O)CNCc2cccc(OC)c2C)cc(N2CCCCS2(=O)=O)c1,0.518
14,Cc1cccc(C)c1CNc1ccnc2cc(C#N)ccc12,0.684
15,FC(F)(F)c1ccc2[nH]c(-c3cccc(-c4ccc(CNCCN5CCNCC5)cc4)c3)nc2c1,0.862
16,CC(=NNC(=N)N)c1ccc2ccc3ccccc3c2c1,0.892
17,COc1ccc2[nH]cc(C3CCN(CCCCCNC(=O)c4ccc(-c5ccccc5)cc4)CC3)c2c1,0.795
18,Cc1ccc(-n2c(=O)c3c(n4c(SC(C)C)nnc24)-c2ccccc2CC32CCCCC2)cc1,0.946
19,N#Cc1cncc(-c2nc3c(N4CCC(Cc5ccccc5)CC4)cccc3n2C2CCNC2)c1 (stereo not drawn),0.987
20,Fc1ccc(OC2CN(c3nccc(NCc4ccccc4Cl)n3)C2)cc1,0.898
21,Cc1ccc(Cn2c(N3CCC(C(=O)NCc4cccs4)CC3)nc3ccccc32)cc1,0.748
22,COc1ccc2c(=NN=Cc3cccnc3)cc(C)[nH]c2c1,0.993
23,CCc1nc2nc(C)cc(Nc3ccc4c(c3)OCCO4)n2n1,1.29
